Like-named read-outs stand apart in the source and are kept apart here.

For data set [1], the target named is menin/MLL (terbium chelate-labeled menin, FITC-MBM1 peptide) (Homo sapiens (Human), UniProt O00255). The data set can be described thus: Menin/MLL homogenous time-resolved fluorescence (HTRF) assay.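 Also: IC50 from percent inhibition of HTRF signal, normalized between wells without competitor and wells with a saturating competitor that displaces FITC-MBM1 from His-tagged menin.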 Format: binding. (In general: In TR-FRET formats the signal depends on donor and acceptor labels being close together.)
Sequence of menin/MLL (terbium chelate-labeled menin, FITC-MBM1 peptide) (O00255 other isoform, or with tags, fused parts or gaps): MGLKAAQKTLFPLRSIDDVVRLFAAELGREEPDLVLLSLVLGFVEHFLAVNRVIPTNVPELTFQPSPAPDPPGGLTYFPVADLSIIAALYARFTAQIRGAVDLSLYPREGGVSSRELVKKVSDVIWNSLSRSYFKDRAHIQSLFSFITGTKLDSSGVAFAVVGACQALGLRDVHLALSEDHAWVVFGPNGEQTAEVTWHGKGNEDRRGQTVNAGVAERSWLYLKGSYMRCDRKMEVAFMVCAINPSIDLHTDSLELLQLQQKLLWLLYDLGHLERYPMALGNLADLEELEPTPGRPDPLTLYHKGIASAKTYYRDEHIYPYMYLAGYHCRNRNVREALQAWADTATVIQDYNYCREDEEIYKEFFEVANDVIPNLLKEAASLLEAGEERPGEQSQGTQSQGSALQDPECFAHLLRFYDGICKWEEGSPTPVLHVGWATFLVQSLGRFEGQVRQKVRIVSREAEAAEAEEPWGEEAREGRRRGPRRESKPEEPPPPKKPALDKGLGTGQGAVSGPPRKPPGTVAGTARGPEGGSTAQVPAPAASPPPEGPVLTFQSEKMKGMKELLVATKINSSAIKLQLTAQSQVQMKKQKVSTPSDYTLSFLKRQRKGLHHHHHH
The test system of another data set is MOLM14 cells. Nature of the data set: Proliferation assay (spheroid growth, 8 days), MOLM14.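 Also: spheroid size read as confluence by live-cell imaging, compounds added at a range of concentrations with 0.3% DMSO, DMSO-treated wells = 0%, highest reference dose = low control.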 Format: cell-based, human. As to conditions: MOLM14, 8 days, read-out: spheroid assay_OneTime MOLM14 IC50.
The next data set concerns OCI-AML3 cells. The data set can be described thus: Proliferation assay (spheroid growth, 8 days), OCI-AML3. As to conditions: OCI-AML3, 8 days. Format: cell-based, human. A digest of the protocol: (§1)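 IC50 values derive from day-8 spheroid confluence, normalized between DMSO-treated wells and the highest dose of a reference compound, fitted with a variable slope. Cells grew 8 days at 37° C under a compound concentration series in 0.3% DMSO.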

For another data set, the system named is KO-52 cells. The data set can be described thus: Proliferation assay (spheroid growth, 8 days), KO-52 control cell line. Format: cell-based, human. As to conditions: read-out: spheroid assay_OneTime KO-52 IC50. The essentials:
as §1

The next data set concerns MEIS1 mRNA. The data set can be described thus: MEIS1 mRNA expression assay (Quantigene Singleplex) in MOLM14 cells.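 Also: MEIS1 transcript levels read by probe hybridization and normalized to RPL28 mRNA, with IC50 fitted to fold changes across a rising compound concentration series.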 Format: cell-based, human. As to conditions: 48 hours incubation.
Another data set addresses hERG (Homo sapiens (Human), UniProt Q12809). The data set can be described thus: Effect on membrane potassium current IKr in hERG-transfected HEK293 cells, Protocol 2 (SyncroPatch 384PE). Format: cell-based. The settings on record: Protocol 2, hERG-transfected HEK293 cells. Here is the method:
8) Effect on the Membrane Potassium Current IKr in hERG Transfected Cell Lines
The compound, vehicle control and positive control were tested on hERG-transfected HEK293 cells. A human embryonic kidney cell line (HEK293) with a stable transfection of hERG (Zhou Z et al. Biophysical Journal 1998. 74, 230-241; McDonald T. V. et al, Nature 1997. 388, 289-292) was used (University of Wisconsin, Madison, USA). The cells were kept in culture in MEM (Minimum Essential Medium, Gibco) which was supplemented with (amounts indicated added to 500 ml MEM): 5 ml L-Glutamine-Penicillin-Streptomycin (Sigma), 50 ml Fetal Bovine serum (Bio-Whittaker), 5 ml Non-essential Amino Acids 100× (Gibco), 5 ml sodium pyruvate 100 mM (Gibco) and 4 ml geneticin 50 mg/ml (Gibco) using T175 flasks. The cells were incubated at 37° C. in 5% CO2 atmosphere (in air).
Cell Harvesting for Assay
Cells were harvested as described below using Accumax™ (Sigma) as the dissociating reagent. Cells were then resuspended in a mixture of 33% DMEM/F12 (Dulbecco's Modified Eagle Medium/Nutrient Mixture F-12—Sigma) media/67% extracellular physiological solution.
The flasks were washed twice carefully with ˜5-10 ml phosphate buffered saline (PBS) (Gibco™) containing 2 mM EDTA (Ethylenediaminetetraacetic acid) (Sigma). The cells were dissociated using ˜3 ml of Accumax™ (cell detachment solution) and incubated for ˜5 to 10 min. at 37° C. Cold external physiological solution (2-5 ml) was added and the flasks are incubated at ˜4° C. for 5-10 min. Then, the cell suspension in each flask was gently dissociated with a 5 ml pipette. The cell suspension was transferred to a low binding petri-dish (˜[…]). Each flask was washed with ˜additional 5 ml cold external physiological solution and this solution was also added to the petri-dish. The petri-dish was then incubated for another 5 to 10 minutes at ˜4° C. After another gentle dissociation of the cell suspension in the petri dish, the cells were transferred to a reservoir kept on an orbital shaker at 200 rpm at 16° C. Before experiments were performed, the cells recovered for ˜20 min.
A 10 mM solution of the compound was used and plated in a 384 well plate. Aliquots of the stock solutions are diluted with the recording solution (see section 3) using automated liquid handling (Biomek FXP; final DMSO concentration: 0.03 to 0.3%). A standard range of screening concentrations was used ranging from 1 μM to 30 μM.
A positive control (E-4031) was included within each run to evaluate the sensitivity of the assay.
External and Intracellular Solutions Used in the Experiments
In the table below the composition of the intracellular and external buffer solutions is shown in [mM] (“NMDG” means N-methyl-D-glucamine)
The whole cell patch clamp technique on transfected cells allows the study of ion-channels with no—or limited interference from other ion-channels. The effects of the compounds on the hERG current were studied with an automated planar patch clamp system, SyncroPatch 384PE (Obergrussberger et al, Journal of Laboratory Automation 2016. 21 (6). 779-793). All cells were recorded in the whole cell mode of the patch clamp technique. The module is incorporated in a liquid handling pipetting robot system, Biomek FXP, for application of cells and compounds, vehicle control and positive control.
The different concentrations of the compounds were applied in two cumulatively increasing concentrations for the compounds (1 μM and 10 μM, and 3 μM and 30 μM, respectively). The hERG current was determined as the maximal tail current at −30 mV and percent inhibition upon compound or vehicle and positive control addition was reported.
After cells are caught onto the individual holes of the recording chips using the chip fill solution, the seal is increased with the seal enhancer solution (increased [Ca^2+]; then the cells were washed twice with recording solution before using a pressure protocol to go into the whole cell mode. […]

Data set [2] is described as follows: Mouse PK (in vivo T1/2 and oral bioavailability). The settings on record: fasted male CD-1 mice, formulating agent HP-β-CD. Here is the method:
3) Mouse PK (In Vivo T1/2 and Oral Bioavailability)
In vivo pharmacokinetics (PK) were assessed in fasted male CD-1 mice (age 6-8 weeks) following a single intravenous (IV, 0.5 or 1.0 mg/kg administered at 2.5 ml/kg) or oral (PO, 5 mg/kg administered at 10 ml solution/kg) dose of test article formulated in a 20% (w:vol) HP-β-CD solution or in Pyrogen free water.
Plasma and/or whole blood samples were collected from the dorsal metatarsal vein at desired timepoints via serial capillary microsampling (approx. 0.03 mL) using EDTA as an anticoagulant. Concentrations of compound in the plasma and blood samples were analyzed using a qualified LC-MS/MS method. In silico analysis of main pharmacokinetic parameters was performed using WinNonlin (Phoenix™, version 6.1) or similar software. (Results see Table 4)

A short description of data set [3]: Metabolic stability in human liver microsomes. Format: in vitro ADME. As to conditions: human liver microsomes 0.5 mg/mL, 1 μM test compound, pH 7.4; for microsomal CLint at 1 μM: read-out: Human LM Clint. Here is the method:
(§2) 4) Metabolic Stability in Human/Mouse Liver Microsomes
(§3) The objective of this study is to measure in vitro metabolic stability of test compound(s) in human and mouse liver microsomes and provide quantitative information on the rate of metabolic turnover (i.e. determination of the apparent intrinsic clearance of test).
(§4) Test items were prepared at a stock concentration of 10 mM in DMSO. For determination of metabolic turnover, a final working solution was prepared by adding 2 μL of 10 mM DMSO stock solution for test compound or positive control compounds to 198 μL of acetonitrile (100 μM final concentration).
(§5) Incubations were performed as follows: First, liver microsomes were thawed on ice and a master solution containing liver microsomes in 100 mM PBS (phosphate-buffered saline) at pH 7.4 is prepared. Next, the liver microsomes solution was added to the incubation plates and 10 mM NADPH (Nicotinamide-adenine dinucleotide phosphate) was added (MW: 833.4 g/mol; Roche Diagnostics GmbH, Germany. Dissolved in phosphate buffer (100 mmol/L, pH 7.4)). The mixture was mixed for 10 seconds and pre-warmed in the incubation plate at 37° C. for 10 minutes. The metabolic reaction was initiated with the addition of 5 μL of the 100 μM working solution for test compound or positive control compounds to incubation plate (final test item concentration=1 μM). The reaction final mixture should contain 1 mM NADPH, 0.5 mg/mL microsomes protein and 1 μM test compound or positive control compound in 100 mM PBS at pH 7.4. The percentage of organic solvent in incubation mixture is 1% with DMSO ≤0.02%.
(§6) The reaction was quenched by transferring 50 μL of the incubated mixture at selected time points into the quenching plate containing 200 μL of cold methanol. After sampling of all the timepoints the quenching plate was centrifuged at 4000 rpm for 40 minutes to precipitate protein. A total of 90 μL of the supernatant was transferred to an analysis plate and ultra-pure H2O water is added into each well for LC/MS/MS analysis. All incubations and analysis were performed in duplicate.
(§7) All calculations were carried out using Microsoft Excel. The slope value, k, was determined by linear regression of the natural logarithm of the remaining percentage of the parent drug vs. incubation time curve.
(§8) The in vitro half-life (in vitro tin) was determined from the slope value: in vitro t1/2=−(0.693/k)
(§9) Conversion of the in vitro tin (in min) into the in vitro intrinsic clearance (in vitro CLint, in μL/min/mg proteins) was done using the following equation: […]
In general terms: Microsomes from liver hold many membrane-bound enzymes, among them those of drug oxidation.

Data set [4] is described as follows: Metabolic stability in mouse liver microsomes. As to conditions: mouse liver microsomes 0.5 mg/mL, 1 μM test compound, pH 7.4; for microsomal CLint at 1 μM: read-out: Mouse LM Clint. Format: in vitro ADME. As to the method:
as §2, §3, §4, §5, §6, §7, §8, §9

The next data set concerns the target hERG potassium channel (Homo sapiens (Human), UniProt Q12809). Nature of the data set: Effect on membrane potassium current IKr in hERG transfected CHO cells, Protocol 1 (QPatch). Format: cell-based. The essentials: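 Whole-cell automated patch clamp on CHO cells stably expressing hERG, held at −80 mV; the value is the tail current at −40 mV after a 2 s step to +60 mV, at pH 7.4 bath and pH 7.2 pipette. After 0.3% DMSO control, compound was applied at 3×10^−7 M, 3×10^−6 M, 10^−5 M and 3×10^−5 M, 5 min each. IC50 comes from a non-linear least-squares fit of block versus vehicle.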
A general note: The hERG channel carries a current that helps repolarise heart muscle cells.

Where [5] appears, read: HTRF-30 min incubation IC50, 30 min incubation.

Sequence of hERG potassium channel (Q12809 whole entry): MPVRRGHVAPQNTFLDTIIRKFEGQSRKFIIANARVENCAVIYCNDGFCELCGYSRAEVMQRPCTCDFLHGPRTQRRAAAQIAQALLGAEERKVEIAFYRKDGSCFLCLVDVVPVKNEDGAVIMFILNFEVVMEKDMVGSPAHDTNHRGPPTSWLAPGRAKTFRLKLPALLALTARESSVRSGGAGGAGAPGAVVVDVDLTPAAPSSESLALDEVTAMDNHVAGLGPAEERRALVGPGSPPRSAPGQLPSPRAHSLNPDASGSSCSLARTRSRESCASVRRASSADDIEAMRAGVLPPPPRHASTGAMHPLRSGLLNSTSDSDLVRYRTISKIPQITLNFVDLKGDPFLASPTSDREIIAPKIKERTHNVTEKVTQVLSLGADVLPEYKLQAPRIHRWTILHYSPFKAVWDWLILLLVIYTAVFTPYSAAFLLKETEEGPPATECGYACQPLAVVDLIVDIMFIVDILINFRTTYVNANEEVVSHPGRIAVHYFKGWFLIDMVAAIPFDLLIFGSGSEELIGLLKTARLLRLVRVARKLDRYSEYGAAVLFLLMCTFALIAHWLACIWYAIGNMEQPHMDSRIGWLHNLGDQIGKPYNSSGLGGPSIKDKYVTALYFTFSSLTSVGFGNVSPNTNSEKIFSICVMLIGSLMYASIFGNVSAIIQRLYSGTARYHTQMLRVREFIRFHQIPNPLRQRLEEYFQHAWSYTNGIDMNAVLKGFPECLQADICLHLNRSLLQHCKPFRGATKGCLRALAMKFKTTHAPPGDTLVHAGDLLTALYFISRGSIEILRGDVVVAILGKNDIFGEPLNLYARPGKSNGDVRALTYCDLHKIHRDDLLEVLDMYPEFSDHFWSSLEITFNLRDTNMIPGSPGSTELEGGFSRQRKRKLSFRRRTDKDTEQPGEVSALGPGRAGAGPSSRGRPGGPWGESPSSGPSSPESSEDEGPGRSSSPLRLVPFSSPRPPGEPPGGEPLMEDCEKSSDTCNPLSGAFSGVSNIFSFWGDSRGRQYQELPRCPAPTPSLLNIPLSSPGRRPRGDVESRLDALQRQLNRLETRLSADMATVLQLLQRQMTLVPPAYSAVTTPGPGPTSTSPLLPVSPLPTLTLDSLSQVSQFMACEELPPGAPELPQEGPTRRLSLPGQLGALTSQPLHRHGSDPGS
Sequence of hERG (Q12809 whole entry): as above

Turning to `CCN(C(=O)c1cc(F)ccc1Oc1nncnc1N1CCC2(C1)CN([C@H](C[C@H](C)CN(C)CCOC)C(C)C)C2)C(C)C` (single isomer, unassigned) [Compound 242], the IC50 in [1] (setting [5]) is 0.26 nM; in the data set on MOLM14 cells (Homo sapiens, MOLM-14, […]) it was 170 nM; in the data set on OCI-AML3 cells (Homo sapiens, OCI-AML-3, […]), 1070 nM; with KO-52 cells (Homo sapiens, […]) it was > 15000 nM; with MEIS1 mRNA (Homo sapiens, MOLM-14, 48 h), 230 nM; at hERG, > 30200 nM.
As for `CCN(C)C[C@H](O)C[C@H](C(C)C)N1CC2(CCN(c3ncnnc3Oc3ccc(F)cc3C(=O)N(CC)C(C)C)C2)C1.O=C(O)/C=C/C(=O)O` (single isomer, unassigned) [Compound 346, N-ethyl-2-((5-(2-((3*R,5R)-6-(ethyl(methyl)amino)-5-hydroxy-2-methylhexan-3-yl)-2,6-diazaspiro[3.4]octan-6-yl)-1,2,4-triazin-6-yl)oxy)-5-fluoro-N-isopropylbenzamide fumarate], the IC50 in data set [1] (setting [5]) is 0.058 nM; in the data set with MOLM14 cells (Homo sapiens, MOLM-14, […]) it was 36 nM; in the data set on OCI-AML3 cells (Homo sapiens, OCI-AML-3, […]), 130 nM; with KO-52 cells (Homo sapiens, […]), > 15000 nM; in the data set on MEIS1 mRNA (Homo sapiens, MOLM-14, 48 h), 33 nM. This molecule gave a half-life in data set [2] (single IV 0.5 or 1.0 mg/kg) of 5.2 h. The molecule further showed a bioavailability in data set [2] (single PO 5 mg/kg) of 5.1%. Moreover, the microsomal CLint at 1 μM in data set [3] is 11 µL/min/mg; in [4] it was < 7.5 µL/min/mg.
For `CCN(C(=O)c1cc(F)ccc1Oc1nncnc1N1CCC2(C1)CN([C@H](CCCO)C(C)C)C2)C(C)C` (single isomer, unassigned) [Compound 47, (*R)—N-ethyl-5-fluoro-2-((5-(2-(6-hydroxy-2-methylhexan-3-yl)-2,6-diazaspiro[3.4]octan-6-yl)-1,2,4-triazin-6-yl)oxy)-N-isopropylbenzamide], the IC50 in [1] (read-out: HTRF-30 min incubation IC50, 30 min incubation) was 0.31 nM; in the data set with MOLM14 cells, 220 nM; with OCI-AML3 cells, 600 nM; in the data set on KO-52 cells, 10800 nM; in the data set with MEIS1 mRNA, 140 nM; at hERG potassium channel, > 30200 nM. Moreover, in data set [3], the “Human LM Clint” value came to 38 µL/min/mg. Also, the “Mouse LM Clint” value in [4] came out at 47 µL/min/mg.
Turning to `CCN(C(=O)c1cc(F)ccc1Oc1nncnc1N1CCC2(C1)CN([C@H](CCCN(C)CCC#N)C(C)C)C2)C(C)C` [Compound 13], the IC50 in [1] (setting [5]) was 0.4 nM; in the data set with MOLM14 cells (Homo sapiens, MOLM-14, […]), 61 nM; with OCI-AML3 cells (Homo sapiens, OCI-AML-3, […]), 210 nM; in the data set with KO-52 cells (Homo sapiens, […]), > 15000 nM; with MEIS1 mRNA (Homo sapiens, MOLM-14, 48 h) it was 77 nM; against hERG potassium channel, 25700 nM. In addition, the values for the microsomal CLint at 1 μM in data set [3] and in [4] were 75 µL/min/mg and 44 µL/min/mg, respectively.
`O=C(O)/C=C/C(=O)O.[2H]C([2H])(COC)N(C)CCC[C@H](C(C)C)N1CC2(CCN(c3ncnnc3Oc3ccc(F)cc3C(=O)N(CC)C(C)C)C2)C1` [Compound 233, (R)-N-ethyl-5-fluoro-N-isopropyl-2-((5-(2-(6-((2-methoxyethyl-1,1-d2)(methyl)amino)-2-methylhexan-3-yl)-2,6-diazaspiro[3.4]octan-6-yl)-1,2,4-triazin-6-yl)oxy)benzamide fumarate]: the IC50 was 26 nM with MOLM14 cells (Homo sapiens, MOLM-14, […]); 150 nM in the data set on OCI-AML3 cells (Homo sapiens, OCI-AML-3, […]); 5030 nM with KO-52 cells (Homo sapiens, […]); > 30200 nM against hERG.

Broadly, the IC50 is the concentration needed to halve the response being measured. By half-life is commonly meant the time in which the quantity being followed falls by half. Lower therefore signals fast loss. As a reminder, the bioavailability is dose-corrected exposure relative to a reference, in per cent. Low values mean little systemic uptake, high ones much systemic uptake.

The values above are taken from patent US12473295B2, “Substituted straight chain spiro derivatives” (Janssen Pharmaceutica NV, priority 2019, dated 2025).
